Assay results from US20260356819A1, “OXOISOINDOLINYL-SUBSTITUTED […] DERIVATIVE AND USE THEREOF” (GLUETACS THERAPEUTICS (SHANGHAI) CO., LTD., priority 2023, published 2026).

How the values were obtained:
Type in all cases: cell-based
Details in all cases: compounds at 50 nM and 500 nM
[1] = target: T1, WEE1 (Homo sapiens, UniProt P30291+Q96SW2); test: Western blot degradation of WEE1 in hPBMCs (24 h)
T1 construct: The supernatant was aspirated as the extracted total cell protein; endogenous in cells; host or cells: human peripheral blood mononuclear cells (hPBMCs)
Outline: (§1)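 Read-out is Western blot band grayscale, divided by internal control band and normalised to give percent target protein remaining; degradation rate is 1 minus that value. Cells were human PBMCs exposed to compound at 50 nM and 500 nM for 24 hours.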

[2] = target: T2, GSPT1 (Homo sapiens, UniProt P15170+Q96SW2); test: Western blot degradation of GSPT1 in hPBMCs (24 h)
T2 construct: The supernatant was aspirated as the extracted total cell protein; endogenous in cells; host or cells: human peripheral blood mononuclear cells (hPBMCs)
Outline: as §1

[3] = target: T3, IKZF3 (Homo sapiens, UniProt Q96SW2+Q9UKT9); test: Western blot degradation of IKZF3 in hPBMCs (24 h)
T3 construct: The supernatant was aspirated as the extracted total cell protein; endogenous in cells; host or cells: human peripheral blood mononuclear cells (hPBMCs)
Outline: as §1

[4] = target: T4, CK1α (Homo sapiens, UniProt P48729+Q96SW2); test: Western blot degradation of CK1α in hPBMCs (24 h)
T4 construct: The supernatant was aspirated as the extracted total cell protein; endogenous in cells; host or cells: human peripheral blood mononuclear cells (hPBMCs)
Outline: as §1

[5] = target: T5, IKZF1 (Homo sapiens, UniProt Q13422+Q96SW2); test: Western blot degradation of IKZF1 in hPBMCs (24 h)
T5 construct: The supernatant was aspirated as the extracted total cell protein; endogenous in cells; host or cells: human peripheral blood mononuclear cells (hPBMCs)
Outline: as §1

[6] = target: T6, IKZF2 (Homo sapiens, UniProt Q96SW2+Q9UKS7); test: Western blot degradation of IKZF2 in hPBMCs (24 h)
T6 construct: The supernatant was aspirated as the extracted total cell protein; endogenous in cells; host or cells: human peripheral blood mononuclear cells (hPBMCs)
Outline: as §1

T2 sequence (P15170 whole entry): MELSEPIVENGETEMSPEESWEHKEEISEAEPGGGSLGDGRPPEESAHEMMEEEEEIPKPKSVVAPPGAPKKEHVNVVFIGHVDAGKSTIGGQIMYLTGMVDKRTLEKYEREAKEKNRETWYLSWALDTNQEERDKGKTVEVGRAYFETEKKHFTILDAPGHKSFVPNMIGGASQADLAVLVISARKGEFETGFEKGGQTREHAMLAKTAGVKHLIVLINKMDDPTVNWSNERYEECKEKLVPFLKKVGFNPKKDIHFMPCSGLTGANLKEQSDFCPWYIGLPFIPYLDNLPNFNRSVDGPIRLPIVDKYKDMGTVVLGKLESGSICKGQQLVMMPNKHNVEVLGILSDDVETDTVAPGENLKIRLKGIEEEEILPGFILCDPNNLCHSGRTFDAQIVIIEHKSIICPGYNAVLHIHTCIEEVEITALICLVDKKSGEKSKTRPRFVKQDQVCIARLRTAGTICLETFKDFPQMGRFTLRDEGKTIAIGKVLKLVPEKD
T2 sequence (Q96SW2 whole entry): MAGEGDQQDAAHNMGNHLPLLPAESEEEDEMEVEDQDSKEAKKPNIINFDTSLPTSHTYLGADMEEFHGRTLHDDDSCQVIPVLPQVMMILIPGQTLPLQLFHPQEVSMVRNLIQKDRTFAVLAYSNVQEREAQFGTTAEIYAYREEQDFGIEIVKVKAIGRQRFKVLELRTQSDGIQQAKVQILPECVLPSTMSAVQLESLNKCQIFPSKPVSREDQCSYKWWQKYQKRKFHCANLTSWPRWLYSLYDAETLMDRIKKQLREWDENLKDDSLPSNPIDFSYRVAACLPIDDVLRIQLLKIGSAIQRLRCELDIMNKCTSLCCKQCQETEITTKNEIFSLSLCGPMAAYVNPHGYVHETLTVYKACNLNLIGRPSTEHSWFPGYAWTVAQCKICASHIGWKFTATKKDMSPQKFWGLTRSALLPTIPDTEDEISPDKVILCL
T2 sequence (Q16531 whole entry partner): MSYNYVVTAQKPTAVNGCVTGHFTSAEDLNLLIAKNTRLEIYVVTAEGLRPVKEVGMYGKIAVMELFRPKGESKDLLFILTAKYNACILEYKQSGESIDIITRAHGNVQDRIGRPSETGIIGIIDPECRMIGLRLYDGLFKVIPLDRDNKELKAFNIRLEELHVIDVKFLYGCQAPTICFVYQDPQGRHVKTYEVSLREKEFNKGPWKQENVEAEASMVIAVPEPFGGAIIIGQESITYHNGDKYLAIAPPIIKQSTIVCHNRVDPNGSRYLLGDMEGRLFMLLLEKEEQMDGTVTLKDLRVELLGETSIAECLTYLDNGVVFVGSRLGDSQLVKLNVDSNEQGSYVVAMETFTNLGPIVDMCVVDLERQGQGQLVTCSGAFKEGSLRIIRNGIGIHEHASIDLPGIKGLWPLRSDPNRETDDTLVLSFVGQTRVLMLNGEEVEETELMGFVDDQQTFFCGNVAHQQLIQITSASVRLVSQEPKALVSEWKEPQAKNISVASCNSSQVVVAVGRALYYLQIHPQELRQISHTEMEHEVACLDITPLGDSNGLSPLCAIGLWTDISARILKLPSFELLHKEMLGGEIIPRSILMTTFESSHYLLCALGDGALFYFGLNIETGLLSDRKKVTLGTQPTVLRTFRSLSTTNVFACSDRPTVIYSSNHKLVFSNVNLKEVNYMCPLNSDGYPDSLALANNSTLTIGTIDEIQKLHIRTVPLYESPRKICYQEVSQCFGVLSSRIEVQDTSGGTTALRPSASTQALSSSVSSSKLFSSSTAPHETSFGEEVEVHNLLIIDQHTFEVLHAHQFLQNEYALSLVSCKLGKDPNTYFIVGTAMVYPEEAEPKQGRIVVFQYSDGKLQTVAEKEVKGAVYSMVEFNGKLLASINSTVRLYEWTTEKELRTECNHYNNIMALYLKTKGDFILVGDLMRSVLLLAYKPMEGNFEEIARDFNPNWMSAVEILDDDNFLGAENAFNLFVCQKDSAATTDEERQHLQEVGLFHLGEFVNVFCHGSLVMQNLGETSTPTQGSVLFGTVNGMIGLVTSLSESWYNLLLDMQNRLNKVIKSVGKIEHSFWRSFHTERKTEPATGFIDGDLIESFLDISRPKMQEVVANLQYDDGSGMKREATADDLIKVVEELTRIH
T6 sequence (Q9UKS7 whole entry): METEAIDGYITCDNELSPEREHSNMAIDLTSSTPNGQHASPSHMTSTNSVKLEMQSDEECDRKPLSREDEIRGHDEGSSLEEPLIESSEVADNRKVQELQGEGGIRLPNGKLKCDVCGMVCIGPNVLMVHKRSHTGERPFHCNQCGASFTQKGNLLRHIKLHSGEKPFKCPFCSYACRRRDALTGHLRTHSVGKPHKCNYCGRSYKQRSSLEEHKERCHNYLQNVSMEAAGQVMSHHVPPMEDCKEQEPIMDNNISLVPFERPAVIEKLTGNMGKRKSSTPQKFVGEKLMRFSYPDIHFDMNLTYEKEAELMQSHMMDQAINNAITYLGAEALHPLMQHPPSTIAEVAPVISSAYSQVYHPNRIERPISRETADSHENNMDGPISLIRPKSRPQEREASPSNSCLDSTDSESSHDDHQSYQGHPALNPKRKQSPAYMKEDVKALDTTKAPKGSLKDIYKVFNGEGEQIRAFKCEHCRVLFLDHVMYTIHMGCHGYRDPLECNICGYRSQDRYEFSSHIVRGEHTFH
T6 sequence (Q96SW2 whole entry): as the sequence (Q96SW2 whole entry) above
T6 sequence (Q16531 whole entry partner): as the sequence (Q16531 whole entry partner) above
T1 sequence (P30291 whole entry): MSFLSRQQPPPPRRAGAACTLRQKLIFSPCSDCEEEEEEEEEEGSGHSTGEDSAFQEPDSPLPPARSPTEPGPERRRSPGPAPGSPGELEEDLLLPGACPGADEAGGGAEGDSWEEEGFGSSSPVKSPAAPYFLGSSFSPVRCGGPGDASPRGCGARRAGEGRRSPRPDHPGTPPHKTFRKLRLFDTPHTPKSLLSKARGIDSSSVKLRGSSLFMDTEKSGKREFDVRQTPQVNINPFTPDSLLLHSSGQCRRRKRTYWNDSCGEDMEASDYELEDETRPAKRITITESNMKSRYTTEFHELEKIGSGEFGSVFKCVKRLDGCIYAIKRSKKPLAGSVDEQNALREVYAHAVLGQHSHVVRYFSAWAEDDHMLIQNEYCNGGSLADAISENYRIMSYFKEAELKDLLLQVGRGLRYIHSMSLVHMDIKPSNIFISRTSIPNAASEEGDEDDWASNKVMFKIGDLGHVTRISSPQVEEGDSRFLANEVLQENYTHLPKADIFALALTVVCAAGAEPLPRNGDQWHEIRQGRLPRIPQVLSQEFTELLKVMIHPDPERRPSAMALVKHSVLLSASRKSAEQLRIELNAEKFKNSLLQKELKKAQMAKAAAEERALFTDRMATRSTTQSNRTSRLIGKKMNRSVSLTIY
T1 sequence (Q96SW2 whole entry): as the sequence (Q96SW2 whole entry) above
T1 sequence (Q16531 whole entry partner): as the sequence (Q16531 whole entry partner) above
T3 sequence (Q9UKT9 whole entry): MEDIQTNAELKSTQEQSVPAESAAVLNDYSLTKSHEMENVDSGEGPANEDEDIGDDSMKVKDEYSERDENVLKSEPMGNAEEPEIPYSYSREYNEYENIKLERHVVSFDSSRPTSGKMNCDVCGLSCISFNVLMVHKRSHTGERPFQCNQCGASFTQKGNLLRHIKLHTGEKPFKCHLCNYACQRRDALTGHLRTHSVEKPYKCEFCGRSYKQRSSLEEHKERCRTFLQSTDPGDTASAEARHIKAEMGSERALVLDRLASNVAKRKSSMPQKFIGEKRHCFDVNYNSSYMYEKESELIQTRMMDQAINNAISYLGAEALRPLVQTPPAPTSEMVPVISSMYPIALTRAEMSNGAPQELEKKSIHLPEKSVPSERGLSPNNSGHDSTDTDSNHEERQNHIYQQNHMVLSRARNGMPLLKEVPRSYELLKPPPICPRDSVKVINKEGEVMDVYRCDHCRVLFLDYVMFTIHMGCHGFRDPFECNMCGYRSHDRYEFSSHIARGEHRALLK
T3 sequence (Q96SW2 whole entry): as the sequence (Q96SW2 whole entry) above
T3 sequence (Q16531 whole entry partner): as the sequence (Q16531 whole entry partner) above
T4 sequence (P48729 whole entry): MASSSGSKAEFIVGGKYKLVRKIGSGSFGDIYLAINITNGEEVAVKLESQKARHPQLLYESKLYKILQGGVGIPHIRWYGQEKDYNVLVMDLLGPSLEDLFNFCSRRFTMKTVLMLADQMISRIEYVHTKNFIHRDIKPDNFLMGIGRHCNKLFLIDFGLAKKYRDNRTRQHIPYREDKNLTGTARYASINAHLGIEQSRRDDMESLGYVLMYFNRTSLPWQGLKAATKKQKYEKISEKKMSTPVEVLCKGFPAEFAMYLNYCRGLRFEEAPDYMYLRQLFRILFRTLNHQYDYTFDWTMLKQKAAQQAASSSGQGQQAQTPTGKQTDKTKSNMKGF
T4 sequence (Q96SW2 whole entry): as the sequence (Q96SW2 whole entry) above
T4 sequence (Q16531 whole entry partner): as the sequence (Q16531 whole entry partner) above

SMILES: O=C1CCN(N2C(=O)c3ccc(CN4CCN(c5nccc(I)c5F)CC4)cc3C2=O)C(=O)N1 [GT-06970, 2-(2,4-dioxotetrahydropyrimidin-1(2H)-yl)-5-((4-(3-fluoro-4-iodopyridin-2-yl)piperazin-1-yl)methyl)isoindoline-1,3-dione]
- WEE1 substrate protein remaining % [1]: A (0% ≤ substrate protein remaining % ≤80%)
- GSPT1 substrate protein remaining % [2]: B (80%< substrate protein remaining % ≤100%)
- IKZF3 substrate protein remaining % [3]: B (80%< substrate protein remaining % ≤100%)
- CK1α substrate protein remaining % [4]: B (80%< substrate protein remaining % ≤100%)
- IKZF1 substrate protein remaining % [5]: B (80%< substrate protein remaining % ≤100%)
- IKZF2 substrate protein remaining % [6]: A (0% ≤ substrate protein remaining % ≤80%)

SMILES: O=C1CCN(N2C(=O)c3ccc(CN4CCN(c5cccnc5)CC4)cc3C2=O)C(=O)N1 [GT-06971, 2-(2,4-dioxotetrahydropyrimidin-1(2H)-yl)-5-((4-(pyridin-3-yl)piperazin-1-yl)methyl)isoindoline-1,3-dione]
- WEE1 substrate protein remaining % [1]: A (0% ≤ substrate protein remaining % ≤80%)
- GSPT1 substrate protein remaining % [2]: B (80%< substrate protein remaining % ≤100%)
- IKZF3 substrate protein remaining % [3]: B (80%< substrate protein remaining % ≤100%)
- CK1α substrate protein remaining % [4]: B (80%< substrate protein remaining % ≤100%)
- IKZF1 substrate protein remaining % [5]: B (80%< substrate protein remaining % ≤100%)
- IKZF2 substrate protein remaining % [6]: A (0% ≤ substrate protein remaining % ≤80%)

SMILES: O=C1CCN(N2C(=O)c3ccc(CN4CCN(c5cncc(Cl)c5Cl)CC4)cc3C2=O)C(=O)N1 [GT-06972, 5-((4-(4,5-dichloropyridin-3-yl)piperazin-1-yl)methyl)-2-(2,4-dioxotetrahydropyrimidin-1(2H)-yl)isoindoline-1,3-dione]
- WEE1 substrate protein remaining % [1]: A (0% ≤ substrate protein remaining % ≤80%)
- GSPT1 substrate protein remaining % [2]: B (80%< substrate protein remaining % ≤100%)
- IKZF3 substrate protein remaining % [3]: B (80%< substrate protein remaining % ≤100%)
- CK1α substrate protein remaining % [4]: B (80%< substrate protein remaining % ≤100%)
- IKZF1 substrate protein remaining % [5]: B (80%< substrate protein remaining % ≤100%)
- IKZF2 substrate protein remaining % [6]: A (0% ≤ substrate protein remaining % ≤80%)

SMILES: O=C1CCN(N2C(=O)c3ccc(CN4CCN(c5c(Cl)ccnc5Cl)CC4)cc3C2=O)C(=O)N1 [GT-06973, 5-((4-(2,4-dichloropyridin-3-yl)piperazin-1-yl)methyl)-2-(2,4-dioxotetrahydropyrimidin-1(2H)-yl)isoindoline-1,3-dione]
- WEE1 substrate protein remaining % [1]: A (0% ≤ substrate protein remaining % ≤80%)
- GSPT1 substrate protein remaining % [2]: B (80%< substrate protein remaining % ≤100%)
- IKZF3 substrate protein remaining % [3]: A (0% ≤ substrate protein remaining % ≤80%)
- CK1α substrate protein remaining % [4]: B (80%< substrate protein remaining % ≤100%)
- IKZF1 substrate protein remaining % [5]: A (0% ≤ substrate protein remaining % ≤80%)
- IKZF2 substrate protein remaining % [6]: B (80%< substrate protein remaining % ≤100%)

SMILES: O=C1CCN(N2Cc3cc(CN4CCN(c5c(Cl)ccnc5Cl)CC4)ccc3C2=O)C(=O)N1 [GT-06974, 1-(5-((4-(2,4-dichloropyridin-3-yl)piperazin-1-yl)methyl)-1-oxoisoindolin-2-yl)dihydropyrimidine-2,4(1H,3H)-dione]
- WEE1 substrate protein remaining % [1]: A (0% ≤ substrate protein remaining % ≤80%)
- GSPT1 substrate protein remaining % [2]: B (80%< substrate protein remaining % ≤100%)
- IKZF3 substrate protein remaining % [3]: A (0% ≤ substrate protein remaining % ≤80%)
- CK1α substrate protein remaining % [4]: B (80%< substrate protein remaining % ≤100%)
- IKZF1 substrate protein remaining % [5]: A (0% ≤ substrate protein remaining % ≤80%)
- IKZF2 substrate protein remaining % [6]: B (80%< substrate protein remaining % ≤100%)

SMILES: O=C1CCN(N2C(=O)c3ccc(CN4CCN(c5ccc(Cl)nc5)CC4)cc3C2=O)C(=O)N1 [GT-07027, 5-((4-(6-chloropyridin-3-yl)piperazin-1-yl)methyl)-2-(2,4-dioxotetrahydropyrimidin-1(2H)-yl)isoindoline-1,3-dione]
- WEE1 substrate protein remaining % [1]: A (0% ≤ substrate protein remaining % ≤80%)
- GSPT1 substrate protein remaining % [2]: A (0% ≤ substrate protein remaining % ≤80%)
- IKZF3 substrate protein remaining % [3]: B (80%< substrate protein remaining % ≤100%)
- CK1α substrate protein remaining % [4]: B (80%< substrate protein remaining % ≤100%)
- IKZF1 substrate protein remaining % [5]: B (80%< substrate protein remaining % ≤100%)
- IKZF2 substrate protein remaining % [6]: B (80%< substrate protein remaining % ≤100%)

SMILES: O=C1CCN(N2Cc3cc(CN4CCN(c5ncnc(Cl)c5Cl)CC4)ccc3C2=O)C(=O)N1 [GT-07028, 1-(5-((4-(5,6-dichloropyrimidin-4-yl)piperazin-1-yl)methyl)-1-oxoisoindolin-2-yl)dihydropyrimidine-2,4(1H,3H)-dione]
- WEE1 substrate protein remaining % [1]: A (0% ≤ substrate protein remaining % ≤80%)
- GSPT1 substrate protein remaining % [2]: A (0% ≤ substrate protein remaining % ≤80%)
- IKZF3 substrate protein remaining % [3]: B (80%< substrate protein remaining % ≤100%)
- CK1α substrate protein remaining % [4]: B (80%< substrate protein remaining % ≤100%)
- IKZF1 substrate protein remaining % [5]: B (80%< substrate protein remaining % ≤100%)
- IKZF2 substrate protein remaining % [6]: B (80%< substrate protein remaining % ≤100%)

SMILES: O=C1CCN(N2Cc3cc(CN4CCN(c5cnnc(Cl)c5Cl)CC4)ccc3C2=O)C(=O)N1 [GT-07029, 1-(5-((4-(5,6-dichloropyridazin-4-yl)piperazin-1-yl)methyl)-1-oxoisoindolin-2-yl)dihydropyrimidine-2,4(1H,3H)-dione]
- WEE1 substrate protein remaining % [1]: A (0% ≤ substrate protein remaining % ≤80%)
- GSPT1 substrate protein remaining % [2]: A (0% ≤ substrate protein remaining % ≤80%)
- IKZF3 substrate protein remaining % [3]: B (80%< substrate protein remaining % ≤100%)
- CK1α substrate protein remaining % [4]: B (80%< substrate protein remaining % ≤100%)
- IKZF1 substrate protein remaining % [5]: B (80%< substrate protein remaining % ≤100%)
- IKZF2 substrate protein remaining % [6]: A (0% ≤ substrate protein remaining % ≤80%)

SMILES: O=C1CCN(N2Cc3cc(CN4CCN(c5cc(Cl)nnc5Cl)CC4)ccc3C2=O)C(=O)N1 [GT-07030, 1-(5-((4-(3,6-dichloropyridazin-4-yl)piperazin-1-yl)methyl)-1-oxoisoindolin-2-yl)dihydropyrimidine-2,4(1H,3H)-dione]
- WEE1 substrate protein remaining % [1]: B (80%< substrate protein remaining % ≤100%)
- GSPT1 substrate protein remaining % [2]: B (80%< substrate protein remaining % ≤100%)
- IKZF3 substrate protein remaining % [3]: B (80%< substrate protein remaining % ≤100%)
- CK1α substrate protein remaining % [4]: B (80%< substrate protein remaining % ≤100%)
- IKZF1 substrate protein remaining % [5]: B (80%< substrate protein remaining % ≤100%)
- IKZF2 substrate protein remaining % [6]: A (0% ≤ substrate protein remaining % ≤80%)

SMILES: O=C1CCN(N2Cc3cc(CN4CCN(c5ncncn5)CC4)ccc3C2=O)C(=O)N1 [GT-07031, 1-(5-((4-(1,3,5-triazin-2-yl)piperazin-1-yl)methyl)-1-oxoisoindolin-2-yl)dihydropyrimidine-2,4(1H,3H)-dione]
- WEE1 substrate protein remaining % [1]: B (80%< substrate protein remaining % ≤100%)
- GSPT1 substrate protein remaining % [2]: A (0% ≤ substrate protein remaining % ≤80%)
- IKZF3 substrate protein remaining % [3]: A (0% ≤ substrate protein remaining % ≤80%)
- CK1α substrate protein remaining % [4]: A (0% ≤ substrate protein remaining % ≤80%)
- IKZF1 substrate protein remaining % [5]: A (0% ≤ substrate protein remaining % ≤80%)
- IKZF2 substrate protein remaining % [6]: B (80%< substrate protein remaining % ≤100%)

SMILES: O=C1CCN(N2Cc3cc(CN4CCN(c5c(Cl)cncc5Cl)CC4)ccc3C2=O)C(=O)N1 [GT-07032, 1-(5-((4-(3,5-dichloropyridin-4-yl)piperazin-1-yl)methyl)-1-oxoisoindolin-2-yl)dihydropyrimidine-2,4(1H,3H)-dione]
- WEE1 substrate protein remaining % [1]: B (80%< substrate protein remaining % ≤100%)
- GSPT1 substrate protein remaining % [2]: A (0% ≤ substrate protein remaining % ≤80%)
- IKZF3 substrate protein remaining % [3]: B (80%< substrate protein remaining % ≤100%)
- CK1α substrate protein remaining % [4]: B (80%< substrate protein remaining % ≤100%)
- IKZF1 substrate protein remaining % [5]: B (80%< substrate protein remaining % ≤100%)
- IKZF2 substrate protein remaining % [6]: B (80%< substrate protein remaining % ≤100%)

SMILES: Cc1cc(N2CCN(Cc3ccc4c(c3)CN(N3CCC(=O)NC3=O)C4=O)CC2)cc(C)n1 [GT-07033, 1-(5-((4-(2,6-dimethylpyridin-4-yl)piperazin-1-yl)methyl)-1-oxoisoindolin-2-yl)dihydropyrimidine-2,4(1H,3H)-dione]
- WEE1 substrate protein remaining % [1]: B (80%< substrate protein remaining % ≤100%)
- GSPT1 substrate protein remaining % [2]: A (0% ≤ substrate protein remaining % ≤80%)
- IKZF3 substrate protein remaining % [3]: B (80%< substrate protein remaining % ≤100%)
- CK1α substrate protein remaining % [4]: B (80%< substrate protein remaining % ≤100%)
- IKZF1 substrate protein remaining % [5]: B (80%< substrate protein remaining % ≤100%)
- IKZF2 substrate protein remaining % [6]: B (80%< substrate protein remaining % ≤100%)

SMILES: O=C1CCN(N2C(=O)c3ccc(CN4CCN(c5ncnc(Cl)c5Cl)CC4)cc3C2=O)C(=O)N1 [GT-07034, 5-((4-(5,6-dichloropyrimidin-4-yl)piperazin-1-yl)methyl)-2-(2,4-dioxotetrahydropyrimidin-1(2H)-yl)isoindoline-1,3-dione]
- WEE1 substrate protein remaining % [1]: A (0% ≤ substrate protein remaining % ≤80%)
- GSPT1 substrate protein remaining % [2]: A (0% ≤ substrate protein remaining % ≤80%)
- IKZF3 substrate protein remaining % [3]: A (0% ≤ substrate protein remaining % ≤80%)
- CK1α substrate protein remaining % [4]: A (0% ≤ substrate protein remaining % ≤80%)
- IKZF1 substrate protein remaining % [5]: A (0% ≤ substrate protein remaining % ≤80%)
- IKZF2 substrate protein remaining % [6]: A (0% ≤ substrate protein remaining % ≤80%)
